Laboratory results published in patent publication US4256750A, “Pharmaceutical compositions” (Wulfing; Johann A., priority 1979, dated 1981).
Values joined by “and” are separate entries in the source; they are usually repeats but may differ in a detail not shown here. Equal entries are not always repeated.

What was measured:
[1] = test system: ischaemic skeletal muscle (calf muscles); experiment: Skeletal muscle contractility in anaesthetized cats with restricted femoral blood flow; assay type: in vivo, cat; details: for change of contractility of ischaemic skeletal muscle (in words) / contractility (% initial value): cat; for change of contractility of ischaemic skeletal muscle (in words): B and C at 5-32 mg/kg compared with Compound A at 125 μg/kg; for contractility (% initial value): ischaemic muscle
Method: (§1) Cats of either sex were anaesthetized with urethane/chloralose (120/60 mg/kg i.p.). In the course of the experiments, pentobarbital was injected intravenously (V. antebrachii ceph.) via a plastic tube. The intraduodenal (i.d.) application of compound was conducted by means of a plastic catheter, which was inserted into the duodenum.
(§2) Cats of either sex were anaesthetized as for pO2 measurement. After dissection of the skin of the calf muscles, the sciatic nerve was cut about 3 cm proximal to the knee. The tendon of the calf muscles was cut and connected with an isometric force transducer (SWEMA, SG 3). In order to maintain constant differences and a resting tension of 100 p, the hind limb was fixed at the tibia by means of a clamp. Direct stimulation of the muscles consisted of square wave pulses of 4 msec duration at a frequency of 2 Hz and at a voltage of 50 V. In order to keep the muscles wet and at a normal temperature, the muscles were continuously superfused by means of a NaCl-solution (0.9%, 38° C.). Femoral blood flow was restricted by a graded occlusion of the artery leading to a reduction of contractility by ca. 30%. After having reached a constant level of the contraction force, the vehicle (NaCl and Methocel, respectively) was injected, followed by the test substance.

[2] = Blood pressure (BP) change in the cat contractility experiment (Table 3); assay type: in vivo
Method: as §1, §2

[3] = Solubility in water / aqueous media; assay type: physicochemical
[4] = test system: ischaemic skeletal muscle (m. gastrocnemius); experiment: pO2 (oxygen tension) measurement in ischaemic skeletal muscle of anaesthetized cats; assay type: in vivo, cat; details: for effect of Compound A, ΔpO2: 125 μg/kg i.v.; for effect of Compound A, ΔpO2 / effect of Compound B, ΔpO2: individual cats; for change of pO2 of ischaemic skeletal muscle (in words): B and C at 5-32 mg/kg compared with Compound A at 125 μg/kg; for effect of Compound B, ΔpO2: 5 mg/kg i.v.
Method: pO2 was measured polarographically using Pt-needle electrodes (modified according to Baumgartl and Lubbers, 1973). The reference electrode, an Ag/A/AgCl system was sputtered on the glass mantle of the cathode, or it was a separate electrode. The cathode was coated with a polystyrol and a collodium membrane. A constant voltage supply provided a polarizing voltage between 600 and 800 mV. The reducing current was measured by a nano-ampere amplifying meter. The cathode was inserted in the tissue by means of a motor-driven micromanipulator.
A pO2 -electrode was inserted in the muscle tissue (m. gastrocnemius) of both hindlegs of an anaesthetized cat. After recording the pO2 of the normal perfused muscle, the blood flow to one measuring site was restricted by ligating the femoral artery. The pO2 dropped steeply and the tissue became ischaemic. After a few minutes, the pO2 increased and then decreased again. The values were constant after 30 to 60 min. After having reached a constant level of pO2, the vehicle was given, followed by the test substance.
The mean value and the standard deviation were calculated, in order to check the significance of the effect.

[5] = in vivo; cited from earlier work
[6] = i.d., Compound A 125 μg/kg, Compound B 32 mg/kg, Compound C 12.5 mg/kg
[7] = i.v., Compound A 50 μg/kg, Compound B 5 mg/kg
[8] = control (hind limb not ligated)
[9] = contractility and pO2 of ischaemic skeletal muscle, cat

CCCCn1c(=O)c2c(ncn2CC(C)=O)n(CCCC)c1=O [Compound A, 1,3-di-n-butyl-7-(2-oxopropyl)xanthine]
Δ muscle contract., t (time interval to reach initial values) ([1]; 50 μg/kg i.v.): > 60 min | Δ muscle contract. ([1]; 50 μg/kg i.v., mean, n 4): +36.0 percentage of initial values | Δ muscle contract., t (time interval to reach initial values) ([1]; 125 μg/kg i.v.): > 60 min | Δ muscle contract. ([1]; 125 μg/kg i.v., mean): +19.0 percentage of initial values | Δ muscle contract. ([1]; 313 μg/kg i.v., n = 1): +25.0 percentage of initial values | Δ muscle contract., t (time interval to reach initial values) ([1]; 313 μg/kg i.v., n = 1): > 60 min | change of contractility of ischaemic skeletal muscle (in words) [1]: distinct increase | contractility (% initial value) [1, 6]: 32 % initial value | contractility (% initial value) [1, 7]: 36 % initial value | Δ initial phase BP decrease, t (time interval to reach initial values) ([2]; 50 μg/kg i.v.): 2 min | Δ second phase BP increase, t (time interval to reach initial values) ([2]; 50 μg/kg i.v.): 33 min | Δ initial phase BP decrease ([2]; 50 μg/kg i.v., mean, n 4): -14.0 percentage of initial values | Δ second phase BP increase ([2]; 50 μg/kg i.v., mean, n 4): +17.0 percentage of initial values | Δ initial phase BP decrease, t (time interval to reach initial values) ([2]; 125 μg/kg i.v.): 3 min | Δ second phase BP increase, t (time interval to reach initial values) ([2]; 125 μg/kg i.v.): 32 min | Δ initial phase BP decrease ([2]; 125 μg/kg i.v., mean): -23.1 percentage of initial values | Δ second phase BP increase ([2]; 125 μg/kg i.v., mean): +10.8 percentage of initial values | Δ initial phase BP decrease ([2]; 313 μg/kg i.v., n = 1): -25.0 percentage of initial values | Δ initial phase BP decrease, t (time interval to reach initial values) ([2]; 313 μg/kg i.v., n = 1): 2 min | Δ second phase BP increase ([2]; 313 μg/kg i.v., n = 1): +15.0 percentage of initial values | Δ second phase BP increase, t (time interval to reach initial values) ([2]; 313 μg/kg i.v., n = 1): 6 min | solubility in aqueous media (in words) ([3]; aqueous media): only sparingly soluble | effect of Compound A, ΔpO2 [4, 8]: 13.2 Torr and 3.8 Torr and 3.5 Torr and 19.3 Torr and 3.4 Torr | effect of Compound A, ΔpO2 ([4]; hind limb art. ligation): 6.2 Torr and 7.3 Torr and 5.2 Torr and 27.1 Torr and 11.2 Torr and 5.6 Torr | change of pO2 of ischaemic skeletal muscle (in words) ([4]; cat): distinct increase | high activity in the μg-range (dose range) [4, 9]: 0.05 to 0.125 mg/kg

CC(=O)CCCCn1c(=O)c2c(ncn2C)n(C)c1=O [Compound B, pentoxyphylline, reference compound]
change of contractility of ischaemic skeletal muscle (in words) [1]: less pronounced | contractility (% initial value) [1, 6]: 23 % initial value | contractility (% initial value) [1, 7]: 9 % initial value | oral toxicity (in words) [5]: low oral toxicity | effect of Compound B, ΔpO2 [4, 8]: 0.3 Torr and 1.02 Torr and -2.4 Torr and 14.3 Torr and -0.9 Torr | effect of Compound B, ΔpO2 ([4]; hind limb art. ligation): -0.16 Torr and -1.5 Torr | Mean effect of Compound B compared to Compound A ([4]; B 5 mg/kg vs A 125 μg/kg, i.v.): 21.3% | change of pO2 of ischaemic skeletal muscle (in words) ([4]; cat): less pronounced

CCCCn1c(=O)c2c(ncn2CCC(C)=O)n(CCCC)c1=O [Compound C, 1,3-di-n-butyl-7-(3-oxobutyl)xanthine, reference compound]
change of contractility of ischaemic skeletal muscle (in words) [1]: less pronounced | contractility (% initial value) [1, 6]: 22 % initial value | water solubility (in words) ([3]; water, reason for not testing i.v.): low water solubility | change of pO2 of ischaemic skeletal muscle (in words) ([4]; cat): less pronounced | dose range of activity [4, 9]: 5 to 32 mg/kg
